The values that follow are results of earlier work, collected in patent US20120065267A1, “COMPOSITIONS INCLUDING 3,5-L-T2 AND METHODS OF USE THEREOF” (priority 2010, published 2012).

Data set [1] concerns hypercholesterolemic patients. The conditions noted are these: cited from earlier work.
Another data set concerns TR α1, β1 and β2. As to conditions: in vitro; cited from earlier work.

Where two headings read alike, the source gives them in different places.

Take `N[C@H](Cc1cc(I)c(Oc2ccc(O)cc2)c(I)c1)C(=O)O` [3,5-D-T2]: in data set [1] (300 mg daily for 8 months), the “patients with coronary artery disease experiencing increased anginal symptoms” value is 7 of 13 and the “patients with coronary artery disease who died suddenly from presumed myocardial infarction” value is 2 of the 13. Further, the “decrease in total serum cholesterol” value in data set [1] (300 mg daily, at 20 weeks) is listed as 20%. Further, the “mean heart rate on treatment” value in data set [1] (300 mg daily, increase from 76) was 88 beats per minute. In data set [1] (doses of less than 250 mg/day), the “efficacy at lower doses” value is listed as “ineffective”. Also, the “decrease in body weight” value in data set [1] (euthyroid subjects, 300 mg daily for 8 months) is given as 5%. In addition, in data set [1] (hypothyroid patients, 300 mg daily for 8 months), the “decrease in body weight” value is recorded as 8%.

With `N[C@@H](Cc1cc(I)c(Oc2ccc(O)c(I)c2)c(I)c1)C(=O)O` [T3, (2S)-2-amino-3-[4-(4-hydroxy-3-iodophenoxy)-3,5-diiodophenyl]propanoic acid], the “binding affinity relative to that of T2” value in the data set on TR α1, β1 and β2 was 40-500 fold.
